Data reported in US20250213589A1, “METHODS AND COMPOSITIONS FOR TE[…]” (priority 2023, published 2025).

Tests used:
[1] = FIG. 1: testosterone concentration in a patient at various time points after 200 mg of testosterone; details: after administration; FIG. 1, 200 mg of testosterone
Procedure: FIG. 1 is a phase diagram of the testosterone concentration in a patient at various time points after being administered 200 mg of testosterone.
Hormone levels were measured after co-administration of 200 mg of testosterone and 6.25 mg of enclomiphene for 30 days. Testosterone concentration was measured at +4 hours and +12 hours after administration. […] Testosterone concentration was measured at +4 hours after administration to capture the peak testosterone concentration (cMax) and +12 hours after administration to capture the trough testosterone concentration (cMin) to determine if endogenous testosterone suppression is prevented with the enclomiphene.

[2] = system: endogenous testosterone, LH, and FSH production; experiment: Example 3: hormone levels after administration of enclomiphene (pre-TRT); format: in vivo, human; details: after 6.25 mg of enclomiphene; n=1
Procedure: This example investigated the effects of administering a SERM (enclomiphene) on endogenous testosterone, LH, and FSH production.
Hormone levels were measured after administration of 6.25 mg of enclomiphene (see Table 3, n=1).

Row | SMILES | time of testosterone peak [1] [h] | time until testosterone is out of the system [1] [h] | Calculated free testosterone levels [2] [pg/mL] | Sex Hormone Binding Globulin [2] [nmol/L] | Testosterone, Bioavailable [2] [ng/dL] | Testosterone, Free [2] [pg/mL] | Testosterone, Total, MS [2] [ng/dL] | increase of calculated free testosterone from baseline (114 pg/mL) [2] [%]
1 | C[C@]12CC[C@H]3[C@@H](CCC4=CC(=O)CC[C@@]43C)[C@@H]1CC[C@@H]2O [Testosterone, testosterone] | 3 to 5 | ≤ 12 |  |  |  |  |  | 
2 | CCN(CC)CCOc1ccc(/C(=C(/Cl)c2ccccc2)c2ccccc2)cc1 [enclomiphene] |  |  | 197 | 20 | 322.9 | 153.7 | 724 | 73
